The values below come from patent US20050009924A1 (priority 2003, published 2005).

Where only a bound is given, the exact number is not on record here.

The test system of one data set is hTERT-BJ1 cells. Put plainly: MTT relative viability, PhTERT-SEAP (hTERT-BJ1) cells. To be noted: PhTERT-SEAP (hTERT-BJ1).
For data set [1], the system named is hepatitis B virus transfected hepatoma cell lines, HepG 2.2.15 cells. Nature of the data set: Cytotoxicity assay, 2.2.15 cells. The class given is cell-based, human. To be noted: 48 h of drug exposure.
A further data set relates to human hepatoma G2 cells. Put plainly: Cytotoxicity assay (XTT colorimetric), Hep G2. The format is cell-based. To be noted: 48 h of drug exposure.
Data set [2] deals with non-small-cell lung cancer cells H1299. Nature of the data set: MTT relative viability, PhTERT-SEAP (H1299) cells. To be noted: PhTERT-SEAP(hTERT-H1299).
For data set [3], the system named is transcriptional activity of hTERT. Nature of the data set: SEAP reporter assay of hTERT expression, PhTERT-SEAP (hTERT-BJ1). The format is cell-based, human. To be noted: PhTERT-SEAP (hTERT-BJ1). The method, boiled down:
(§1)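 Cells seeded, grown 24 h at 37° C, refed, then exposed to varying drug amounts for another 24 h. Collected media heated 65° C for 10 min to kill heat-labile phosphatases, mixed with equal SEAP buffer (2 M diethanolamine, 1 mM MgCl2, 20 mM […]) plus 12 mM final p-nitrophenyl phosphate; rate of A405 increase measured.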
A general note: In a reporter assay the amount or activity of a reporter protein is the signal.

The next data set concerns rat glioma C6 cells. Nature of the data set: Cytotoxicity assay (XTT colorimetric), C6 cells. The class given is cell-based. To be noted: 48 h of drug exposure. Background: Tetrazolium dyes change colour on reduction, which living cells bring about.
Data set [4] concerns transcriptional activity of hTERT. Nature of the data set: SEAP reporter assay of hTERT expression, PhTERT-SEAP (H1299). To be noted: PhTERT-SEAP(hTERT-H1299). The class given is cell-based, human. The gist of the method: as §1

With `O=C(Nc1ccc(NC(=O)c2ccc(C(F)(F)F)cc2)c2c1C(=O)c1ccccc1C2=O)c1ccc(C(F)(F)F)cc1` [VI31, 1,4-Bis(4-trifluorobenzoylamido)-9,10-anthracenedione], the “Relative MTT viability (%)” value is listed as 98 ± 4.4% in the data set on hTERT-BJ1 cells (1.7 μM); 100 ± 3.4% in the data set on hTERT-BJ1 cells (17 μM); 89 ± 3.6% in the data set on hTERT-BJ1 cells (171 μM); 98 ± 7.8% in data set [2] (1.7 μM); 100 ± 8.9% in data set [2] (17 μM); 77 ± 6.7% in data set [2] (171 μM). The IC50 (in data set [1]; with human hepatoma G2 cells; in the data set on rat glioma C6 cells) was over 20 µM in each case. For the same compound, the “Relative SEAP activity (%)” value in data set [3] (1.7 μM) worked out at 100 ± 15.1%; in data set [3] (17 μM), 90 ± 16.3%; in data set [3] (171 μM) it was 103 ± 17.6%; in data set [4] (1.7 μM), 110 ± 5.5%; in data set [4] (17 μM) it was 114 ± 5.6%; in data set [4] (171 μM), 96 ± 2.1%. Further, the SEAP/vibility in data set [3] (1.7 μM) is reported as 1.02; in data set [3] (17 μM), 0.90; in data set [3] (171 μM) it was 1.16; in data set [4] (1.7 μM) it was 1.12; in data set [4] (17 μM) it was 1.14; in data set [4] (171 μM), 1.24.

In the case of `O=C1c2ccccc2C(=O)c2c(NC(=O)C3CCCC3)ccc(NC(=O)C3CCCC3)c21` [VI20, 1,4-Bis(cyclopentaneamido)-9,110-anthracenedione], the “Relative MTT viability (%)” value in the data set with hTERT-BJ1 cells (2.3 μM) stood at 106 ± 2.3%; in the data set with hTERT-BJ1 cells (23 μM), 103 ± 4.4%; in the data set on hTERT-BJ1 cells (233 μM), 93 ± 5.7%; in data set [2] (2.3 μM) it was 107 ± 6.1%; in data set [2] (23 μM), 103 ± 6.1%; in data set [2] (233 μM), 92 ± 8.6%. Moreover, the IC50 (in data set [1]; in the data set with human hepatoma G2 cells; in the data set on rat glioma C6 cells) was over 20 µM throughout. For the same compound, the “Relative SEAP activity (%)” value in data set [3] (2.3 μM) is recorded as 85 ± 7.7%; in data set [3] (23 μM), 93 ± 18.5%; in data set [3] (233 μM), 63 ± 36.5%; in data set [4] (2.3 μM), 119 ± 8.5%; in data set [4] (23 μM) it was 118 ± 9.2%; in data set [4] (233 μM), 113 ± 8.9%. Also, the SEAP/vibility is listed as 0.81 in data set [3] (2.3 μM); 0.90 in data set [3] (23 μM); 0.67 in data set [3] (233 μM); 1.11 in data set [4] (2.3 μM); 1.15 in data set [4] (23 μM); 1.23 in data set [4] (233 μM).

For the compound `O=C(Nc1ccc(NC(=O)c2c(Cl)cc(Cl)cc2Cl)c2c1C(=O)c1ccccc1C2=O)c1c(Cl)cc(Cl)cc1Cl` [VI13, 1,4-Bis(2,4,6-trichlorobenzoylamido)-9,10-anthracenedione], the “Relative MTT viability (%)” value in the data set with hTERT-BJ1 cells (1.5 μM) turned out to be 98 ± 8.5%; with hTERT-BJ1 cells (15 μM) it was 63 ± 7.0%; with hTERT-BJ1 cells (153 μM), 40 ± 22.2%; in data set [2] (1.5 μM), 113 ± 4.8%; in data set [2] (15 μM), 107 ± 5.4%; in data set [2] (153 μM) it was 20 ± 3.3%. The results for the IC50 (in data set [1]; in the data set on human hepatoma G2 cells; in the data set on rat glioma C6 cells) were 3.63 µM, 2.77 µM and over 20 µM, respectively. The “Relative SEAP activity (%)” value in data set [3] (1.5 μM) stood at 31 ± 23.0%; in data set [3] (15 μM), 12 ± 12.5%; in data set [3] (153 μM), 4 ± 15%; in data set [4] (1.5 μM) it was 98 ± 4.5%; in data set [4] (15 μM), 66 ± 2.4%; in data set [4] (153 μM) it was 41 ± 3.9%. Further, the SEAP/vibility is 0.32 in data set [3] (1.5 μM); 0.19 in data set [3] (15 μM); 0.09 in data set [3] (153 μM); 0.87 in data set [4] (1.5 μM); 0.61 in data set [4] (15 μM); 0.03 in data set [4] (153 μM).

As usually defined, the IC50 is the midpoint of a concentration-inhibition curve. Low readings indicate greater potency, high ones weaker potency.
